Here are results for 13 compounds from patent US20250092065A1, “2-(INDAZOL-5-YL)-6-(PIPERIDIN-4-YL)-1,7-NAPHTHYRIDINE DERIVATIVES AND RELATED COMPOUNDS AS MODULATORS FOR SPLICING NUCLEIC ACIDS AND FOR THE TREATMENT OF PROLIFERATIVE DISEASES” (REMIX THERAPEUTICS INC., priority 2022, published 2025).

Molecules are shown by their SMILES. Where two headings read alike, the source gives them in different places.

The test system of one data set is HTT. Put plainly: HiBiT protein abundance assay, HTT (K562 HiBiT knock-in). The class given is cell-based, human. To be noted: HiBiT knock-in K562 cells, 24 hours, top dose 10 μM. The method in brief: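 K562 HiBiT knock-in, 24 h, 37 °C, top 10 μM final, 3-fold ×10, DMSO ≤0.25%. Lytic HiBiT luminescence; PC = parental K562, NC = DMSO; 4PL IC50.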
A further data set relates to K562 cells. As to the kind of experiment: Cell Titer Glo 2.0 cell viability (toxicity) assay, K562. To be noted: 500 cells/well, 72 hours.
For a further data set, the system named is SMN2 mRNA. Put plainly: RT-qPCR splicing assay, SMN2 mRNA. The class given is cell-based, human. To be noted: Homo sapiens, canonical junction qPCR panel, Table 4; read-out: SMN2 IC50 (decrease in CJ mRNA levels). In outline:
(§1)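 Splice switching quantified in compound-treated A673/K562 cells after 24 h exposure (top dose 10 uM, 3-fold steps, ≤0.25% DMSO), using CJ and AJ qPCR assays run at least in duplicate. RQ derived by 2^(−ΔΔCt), then percentage response.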

A further data set has as its system HTT mRNA. Put plainly: RT-qPCR splicing assay, HTT mRNA canonical (CJ) and alternative (AJ) junction. To be noted: Homo sapiens; for AC50: HTT alternative junction mRNA, read-out: HTT AJ (increase in AJ mRNA, AC50). Format: cell-based, human. The method in brief:
as §1

The subject of the next data set is Target C. Put plainly: HiBiT protein abundance assay, Target C (K562 HiBiT knock-in). The following applies: HiBiT knock-in K562 cells, 24 hours, top dose 10 μM. The class given is cell-based, human. In outline:
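K562 HiBiT knock-in cells (10000/well) were treated 24 h at 37° C with a 10-point 3-fold dilution series (top 10 μM final, ≤0.25% DMSO). HiBiT luminescence was read after lytic LgBiT detection. Percent response used unmodified K562 and DMSO-treated knock-in controls, and IC50 came from a four-parameter fit at 50% of untreated.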

The mark [1] stands for this setting: HTT canonical junction mRNA, RT-qPCR, read-out: HTT CJ (decrease in CJ mRNA levels, IC50).
[2] abbreviates: canonical junction qPCR panel, Table 4, read-out: HTT IC50 (decrease in CJ mRNA levels).

Consider `Cc1c(O)c(-c2ncc3nc(C4CCNCC4)ccc3n2)cc2cn(C)nc12` [Compound 370, 2,7-dimethyl-5-[6-(piperidin-4-yl)pyrido[3,2-d]pyrimidin-2-yl]indazol-6-ol], for which the IC50 in the data set with HTT is 100 to 1000 nM; in the data set with SMN2 mRNA, less than 100 nM; in the data set on HTT mRNA (setting [1]), 100 to 1000 nM; in the data set with HTT mRNA (setting [2]) it was 100 to 1000 nM; in the data set on Target C it was 100 to 1000 nM. The “Effect of Exemplary Compounds on Cell Viability, K562” value (“Effect of Exemplary Compounds” below) in the data set on K562 cells is recorded as “C (C represents 1000-9999 nM)”. In the data set on HTT mRNA (RT-qPCR), the AC50 lay within 1000 to 10000 nM.

Regarding `Cc1nc2c(F)c(O)c(-c3ccc4nc(N5CC[C@H](N[C@H]6C[C@@H](F)C6)C5)ccc4n3)cc2o1` [Compound 374, 4-fluoro-2-methyl-6-[6-(3-{[(1r,3r)-3-fluorocyclobutyl]amino}pyrrolidin-1-yl)-1,5-naphthyridin-2-yl]-1,3-benzoxazol-5-ol], the IC50 with HTT, in the data set with SMN2 mRNA, in the data set on HTT mRNA (setting [1]), with HTT mRNA (setting [2]) and in the data set on Target C was less than 100 nM each time. Besides, the “Effect of Exemplary Compounds” value in the data set with K562 cells is listed as “A (A represents <100 nM)”. The AC50 in the data set with HTT mRNA (RT-qPCR) is less than 100 nM.

As for `CNC1CCN(c2ccc3nc(-c4cc(C#N)c5nc(C)cn5c4)ncc3n2)C1` (stereo not shown) [Compound 382, 2-methyl-6-{6-[3-(methylamino)pyrrolidin-1-yl]pyrido[3,2-d]pyrimidin-2-yl}imidazo[1,2-a]pyridine-8-carbonitrile], the IC50 was 100 to 1000 nM in the data set on HTT; less than 100 nM with SMN2 mRNA; 100 to 1000 nM in the data set on HTT mRNA (setting [1]); 100 to 1000 nM in the data set with HTT mRNA (setting [2]); 1000 to 10000 nM in the data set on Target C. For the same compound, in the data set with K562 cells, the “Effect of Exemplary Compounds” value is reported as “A (A represents <100 nM)”. Moreover, the AC50 in the data set on HTT mRNA (RT-qPCR) is 100 to 1000 nM.

In the case of `Cn1cc2cc(-c3ccc4nc(N5CC[C@H](NC6CC(F)(F)C6)C5)ccc4n3)c(O)cc2n1` [Compound 384], the IC50 in the data set with HTT is 1000 to 10000 nM; in the data set with SMN2 mRNA, less than 100 nM; in the data set on HTT mRNA (setting [1]) it was 1000 to 10000 nM; in the data set on HTT mRNA (setting [2]), 1000 to 10000 nM; with Target C, 1000 to 10000 nM. The “Effect of Exemplary Compounds” value with K562 cells is “D (D represents greater than 10 μM in K562 cells)”. For the same compound, the AC50 with HTT mRNA (RT-qPCR) fell in the range of 1000 to 10000 nM.

As for `Cn1cc2cc(-c3ccc4nc(N5CC[C@@H](NC6CC(F)(F)C6)C5)ccc4n3)c(O)cc2n1` [Compound 385], the IC50 in the data set on HTT is less than 100 nM; in the data set with SMN2 mRNA, less than 100 nM; in the data set with HTT mRNA (setting [1]) it was less than 100 nM; in the data set with HTT mRNA (setting [2]), less than 100 nM; in the data set with Target C, 100 to 1000 nM. In the data set on K562 cells, the “Effect of Exemplary Compounds” value is listed as “D (D represents greater than 10 μM in K562 cells)”. For the same compound, the AC50 in the data set on HTT mRNA (RT-qPCR) was 100 to 1000 nM.

Take `Cn1cc2cc(-c3ccc4nc(N5CCC(NCC6CC6)C5)ccc4n3)c(O)c(F)c2n1` (stereo not shown) [Compound 387, 5-(6-{3-[(cyclopropylmethyl)amino]pyrrolidin-1-yl}-1,5-naphthyridin-2-yl)-7-fluoro-2-methylindazol-6-ol]: the IC50 in the data set on HTT, in the data set with SMN2 mRNA, in the data set on HTT mRNA (setting [1]), in the data set on HTT mRNA (setting [2]) and in the data set on Target C was less than 100 nM each time. The “Effect of Exemplary Compounds” value with K562 cells is given as “A (A represents <100 nM)”. In the data set with HTT mRNA (RT-qPCR), the concentration at half-maximal activity (AC50) is less than 100 nM.

`CC(C)NC1CCN(c2ccc3nc(-c4cc5cn(C)nc5c(F)c4O)ccc3n2)C1` (stereo not shown) [Compound 388, 7-fluoro-5-{6-[3-(isopropylamino)pyrrolidin-1-yl]-1,5-naphthyridin-2-yl}-2-methylindazol-6-ol]: the IC50 in the data set with HTT, with SMN2 mRNA, in the data set on HTT mRNA (setting [1]), in the data set with HTT mRNA (setting [2]) and in the data set with Target C was less than 100 nM in each case. Further, in the data set on K562 cells, the “Effect of Exemplary Compounds” value was “A (A represents <100 nM)”. Further, the AC50 with HTT mRNA (RT-qPCR) was less than 100 nM.

Take `Cc1nc2cc(O)c(-c3ccc4nc(N5CCC(NCC6CC6)C5)ccc4n3)cc2o1` (stereo not shown) [Compound 389, 6-(6-{3-[(cyclopropylmethyl)amino]pyrrolidin-1-yl}-1,5-naphthyridin-2-yl)-2-methyl-1,3-benzoxazol-5-ol]: the IC50 in the data set on HTT, in the data set on SMN2 mRNA, in the data set with HTT mRNA (setting [1]), with HTT mRNA (setting [2]) and with Target C was less than 100 nM throughout. In addition, the “Effect of Exemplary Compounds” value with K562 cells is listed as “B (B represents 100-1000 nM)”. Further, in the data set on HTT mRNA (RT-qPCR), the half-maximal activity concentration (AC50) is 100 to 1000 nM.

Regarding `Cc1nc2c(C)c(O)c(-c3ccc4nc(N5CCC(NCC6CC6)C5)ccc4n3)cc2o1` (stereo not shown) [Compound 390, 6-(6-{3-[(cyclopropylmethyl)amino]pyrrolidin-1-yl}-1,5-naphthyridin-2-yl)-2,4-dimethyl-1,3-benzoxazol-5-ol], the 50% inhibitory concentration (IC50) in the data set with HTT, in the data set with SMN2 mRNA, in the data set on HTT mRNA (setting [1]), in the data set on HTT mRNA (setting [2]) and in the data set on Target C was less than 100 nM in each case. For the same compound, the “Effect of Exemplary Compounds” value in the data set with K562 cells was “A (A represents <100 nM)”. Further, in the data set with HTT mRNA (RT-qPCR), the AC50 was less than 100 nM.

As for `CNC1CCN(c2ccc3nc(-c4cc(F)c5nc(C)cn5c4)ncc3n2)C1` (stereo not shown) [Compound 393, 1-(2-{8-fluoro-2-methylimidazo[1,2-a]pyridin-6-yl}pyrido[3,2-d]pyrimidin-6-yl)-N-methylpyrrolidin-3-amine], the IC50 was 100 to 1000 nM with HTT; less than 100 nM with SMN2 mRNA; 100 to 1000 nM in the data set on HTT mRNA (setting [1]); 100 to 1000 nM with HTT mRNA (setting [2]); 100 to 1000 nM in the data set on Target C. Besides, in the data set with K562 cells, the “Effect of Exemplary Compounds” value is “B (B represents 100-1000 nM)”. In the data set with HTT mRNA (RT-qPCR), the AC50 was in the range of 100 to 1000 nM.

For `Cc1c(O)c(-c2ncc3nc(C4CCNC4)ccc3n2)cc2cn(C)nc12` (stereo not shown) [Compound 397, 2,7-dimethyl-5-[6-(pyrrolidin-3-yl)pyrido[3,2-d]pyrimidin-2-yl]indazol-6-ol; trifluoroacetic acid], the IC50 in the data set with HTT was 1000 to 10000 nM; in the data set with SMN2 mRNA, less than 100 nM; in the data set with HTT mRNA (setting [1]) it was 1000 to 10000 nM; with HTT mRNA (setting [2]), 1000 to 10000 nM; with Target C, 1000 to 10000 nM. The “Effect of Exemplary Compounds” value in the data set with K562 cells is listed as “B (B represents 100-1000 nM)”. The AC50 with HTT mRNA (RT-qPCR) is 1000 to 10000 nM.

For the compound `Cc1c(O)c(-c2ncc3nc([C@H]4CCNC4)ccc3n2)cc2cn(C)nc12` [Compound 399], the IC50 is more than 10000 nM in the data set with HTT; 100 to 1000 nM with SMN2 mRNA; more than 10000 nM in the data set with HTT mRNA (setting [1]); more than 10000 nM in the data set on HTT mRNA (setting [2]); more than 10000 nM in the data set on Target C. Also, the “Effect of Exemplary Compounds” value in the data set with K562 cells is listed as “C (C represents 1000-9999 nM)”. Also, the AC50 in the data set with HTT mRNA (RT-qPCR) was more than 10000 nM.

`Cn1cc2cc(-c3ncc4nc(C5CCNCC5)ccc4n3)c(O)c(C#N)c2n1` [Compound 403, 6-hydroxy-2-methyl-5-[6-(piperidin-4-yl)pyrido[3,2-d]pyrimidin-2-yl]indazole-7-carbonitrile; trifluoroacetic acid]: the IC50 with HTT was 100 to 1000 nM; in the data set with SMN2 mRNA, less than 100 nM; with HTT mRNA (setting [1]), 100 to 1000 nM; in the data set with HTT mRNA (setting [2]), 100 to 1000 nM; with Target C, 100 to 1000 nM. Moreover, the “Effect of Exemplary Compounds” value in the data set on K562 cells is “B (B represents 100-1000 nM)”. For the same compound, the AC50 in the data set with HTT mRNA (RT-qPCR) lay in the range of 100 to 1000 nM.
